# Reference: PubChem BioAssay AID248 (DTP/NCI, 2004)
# Where “and” joins values, the source holds several entries; their conditions need not be identical. Equal values may be shown once. Inconclusive results and toxic doses are left out.
# Tested on: L1210 leukemia ip in BDF1 mice, survival T/C
# Assay: NCI In Vivo Anticancer Drug Screen. Data for tumor model L1210 Leukemia (intraperitoneal) in B6D2F1 (BDF1) mice
# Conditions: endpoint: mean survival time, higher = longer survival
# Summary of the method: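 Tumor was transplanted into mice, which were then dosed with test compound or vehicle alone. Survival was recorded for each group, and the treated figure was expressed relative to the control figure.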
# [1] = dose: 100.0 mg/kg/injection, schedule: Q04DX003 (ip), vehicle: Klucel (hydroxypropylcellulose) (HPC)
# [2] = dose: 200.0 mg/kg/injection, schedule: Q04DX003 (ip), vehicle: Klucel (hydroxypropylcellulose) (HPC)
# [3] = dose: 400.0 mg/kg/injection, schedule: Q04DX003 (ip), vehicle: Klucel (hydroxypropylcellulose) (HPC)
# [4] = dose: 75.0 mg/kg/injection, schedule: Q01DX009 (ip), vehicle: saline
# [5] = dose: 100.0 mg/kg/injection, schedule: Q01DX009 (ip), vehicle: saline with Tween-80
# [6] = dose: 200.0 mg/kg/injection, schedule: Q01DX009 (ip), vehicle: saline with Tween-80
# [7] = dose: 400.0 mg/kg/injection, schedule: Q01DX009 (ip), vehicle: saline with Tween-80
# [8] = dose: 100.0 mg/kg/injection, schedule: Q04DX003 (ip), vehicle: saline
# [9] = dose: 200.0 mg/kg/injection, schedule: Q04DX003 (ip), vehicle: saline
# [10] = dose: 400.0 mg/kg/injection, schedule: Q04DX003 (ip), vehicle: saline
# [11] = dose: 100.0 mg/kg/injection, schedule: Q01DX009 (ip), vehicle: Klucel (hydroxypropylcellulose) (HPC)
# [12] = dose: 200.0 mg/kg/injection, schedule: Q01DX009 (ip), vehicle: Klucel (hydroxypropylcellulose) (HPC)
# [13] = dose: 400.0 mg/kg/injection, schedule: Q01DX009 (ip), vehicle: Klucel (hydroxypropylcellulose) (HPC)
# [14] = dose: 100.0 mg/kg/injection, schedule: Q01DX009 (ip), vehicle: saline
# [15] = dose: 200.0 mg/kg/injection, schedule: Q01DX009 (ip), vehicle: saline
compound,measurement,setting,value
c1ccc(C(c2ccccc2)[P+](c2ccccc2)(c2ccccc2)c2ccccc2)cc1,T/C,"dose: 0.75 mg/kg/injection, schedule: Q01DX005 (ip), vehicle: gum acacia",106 % of control and 110 % of control
same,T/C,"dose: 1.5 mg/kg/injection, schedule: Q01DX005 (ip), vehicle: gum acacia",106 % of control
same,T/C,"dose: 1.5 mg/kg/injection, schedule: Q01DX009 (ip), vehicle: gum acacia",111 % of control
same,T/C,"dose: 3.0 mg/kg/injection, schedule: Q01DX009 (ip), vehicle: gum acacia",111 % of control
same,T/C,"dose: 3.12 mg/kg/injection, schedule: Q04DX002 (ip), vehicle: gum acacia",100 % of control
same,T/C,"dose: 6.25 mg/kg/injection, schedule: Q01DX005 (ip), vehicle: gum acacia",95 % of control
same,T/C,"dose: 6.25 mg/kg/injection, schedule: Q04DX002 (ip), vehicle: gum acacia",95 % of control
same,T/C,"dose: 12.5 mg/kg/injection, schedule: Q04DX002 (ip), vehicle: gum acacia",111 % of control and 92 % of control
O=[N+]([O-])c1ccc(C=Nc2ccc(OCc3ccccc3)cc2)s1,T/C,[1],91 % of control
same,T/C,[2],88 % of control
same,T/C,[3],91 % of control
Cc1noc(C)c1[N+](=O)[O-],T/C,[4],97 % of control
same,T/C,"dose: 150.0 mg/kg/injection, schedule: Q01DX009 (ip), vehicle: saline",94 % of control
same,T/C,"dose: 300.0 mg/kg/injection, schedule: Q01DX009 (ip), vehicle: saline",101 % of control
CNC(=O)c1ccc[n+](Cc2ccccc2)c1,T/C,"dose: 18.75 mg/kg/injection, schedule: Q01DX009 (ip), vehicle: saline",94 % of control
same,T/C,"dose: 37.5 mg/kg/injection, schedule: Q01DX009 (ip), vehicle: saline",100 % of control
same,T/C,"dose: 37.5 mg/kg/injection, schedule: Q04DX003 (ip), vehicle: saline",97 % of control
same,T/C,"dose: 75.0 mg/kg/injection, schedule: Q01DX001 (ip), vehicle: saline",106 % of control
same,T/C,[4],92 % of control
same,T/C,"dose: 75.0 mg/kg/injection, schedule: Q04DX003 (ip), vehicle: saline",101 % of control
same,T/C,"dose: 150.0 mg/kg/injection, schedule: Q01DX001 (ip), vehicle: saline",101 % of control
same,T/C,"dose: 150.0 mg/kg/injection, schedule: Q04DX003 (ip), vehicle: saline",100 % of control
c1cc2c([nH]1)CCCC2,T/C,"dose: 75.0 mg/kg/injection, schedule: Q01DX001 (ip), vehicle: acetone",106 % of control
same,T/C,"dose: 150.0 mg/kg/injection, schedule: Q01DX001 (ip), vehicle: acetone",111 % of control
same,T/C,"dose: 300.0 mg/kg/injection, schedule: Q01DX001 (ip), vehicle: acetone",100 % of control
CCC1(c2ccccc2)C(=O)N(CCl)C(=O)N(CCl)C1=O,T/C,[5],93 % of control
same,T/C,"dose: 100.0 mg/kg/injection, schedule: Q04DX002 (ip), vehicle: saline with Tween-80",103 % of control
same,T/C,[6],87 % of control
same,T/C,"dose: 200.0 mg/kg/injection, schedule: Q04DX002 (ip), vehicle: saline with Tween-80",92 % of control
same,T/C,[7],90 % of control
same,T/C,"dose: 400.0 mg/kg/injection, schedule: Q04DX002 (ip), vehicle: saline with Tween-80",95 % of control
O=c1oc2ccc(Cl)cc2n1CN1CCOCC1,T/C,"dose: 100.0 mg/kg/injection, schedule: Q01DX001 (ip), vehicle: carboxymethylcellulose (CMC)",96 % of control
same,T/C,"dose: 200.0 mg/kg/injection, schedule: Q01DX001 (ip), vehicle: carboxymethylcellulose (CMC)",96 % of control
same,T/C,"dose: 400.0 mg/kg/injection, schedule: Q01DX001 (ip), vehicle: carboxymethylcellulose (CMC)",88 % of control
CCOC(=O)C(=O)Nc1ccccc1C(=O)O,T/C,"dose: 100.0 mg/kg/injection, schedule: Q04DX009 (ip), vehicle: saline with Tween-80",96 % of control
same,T/C,"dose: 200.0 mg/kg/injection, schedule: Q04DX009 (ip), vehicle: saline with Tween-80",103 % of control
same,T/C,"dose: 400.0 mg/kg/injection, schedule: Q04DX009 (ip), vehicle: saline with Tween-80",102 % of control
CCOC(=O)C(NC(=O)OCc1ccccc1)(OCc1ccccc1)C(C)C (stereo unspecified),T/C,[5],105 % of control
same,T/C,[6],98 % of control
same,T/C,[7],100 % of control
Cc1nc2n[nH]c(N)c2nc1C,T/C,[8],98 % of control
same,T/C,[9],91 % of control
same,T/C,[10],88 % of control
CN(C=O)COCN(C)C=O,T/C,"dose: 100.0 mg/kg/injection, schedule: Q01DX001 (ip), vehicle: other",98 % of control
same,T/C,"dose: 100.0 mg/kg/injection, schedule: Q04DX003 (ip), vehicle: other",98 % of control
same,T/C,"dose: 200.0 mg/kg/injection, schedule: Q01DX001 (ip), vehicle: other",97 % of control
same,T/C,"dose: 200.0 mg/kg/injection, schedule: Q04DX003 (ip), vehicle: other",102 % of control
same,T/C,"dose: 400.0 mg/kg/injection, schedule: Q01DX001 (ip), vehicle: other",97 % of control
same,T/C,"dose: 400.0 mg/kg/injection, schedule: Q04DX003 (ip), vehicle: other",104 % of control
S=c1[nH]c2c(Cl)c(Cl)c(Cl)c(Cl)c2[nH]1,T/C,[5],90 % of control
same,T/C,"dose: 100.0 mg/kg/injection, schedule: Q04DX003 (ip), vehicle: saline with Tween-80",100 % of control
same,T/C,[6],95 % of control
same,T/C,"dose: 200.0 mg/kg/injection, schedule: Q04DX003 (ip), vehicle: saline with Tween-80",98 % of control
same,T/C,"dose: 400.0 mg/kg/injection, schedule: Q04DX003 (ip), vehicle: saline with Tween-80",102 % of control
O=P1(c2ccccc2)OCCO1,T/C,"dose: 25.0 mg/kg/injection, schedule: Q01DX009 (ip), vehicle: carboxymethylcellulose (CMC)",97 % of control and 98 % of control
same,T/C,"dose: 50.0 mg/kg/injection, schedule: Q01DX009 (ip), vehicle: carboxymethylcellulose (CMC)",100 % of control and 101 % of control
same,T/C,"dose: 100.0 mg/kg/injection, schedule: Q01DX009 (ip), vehicle: carboxymethylcellulose (CMC)",94 % of control and 100 % of control and 101 % of control
same,T/C,"dose: 100.0 mg/kg/injection, schedule: Q04DX002 (ip), vehicle: carboxymethylcellulose (CMC)",93 % of control and 102 % of control
same,T/C,"dose: 100.0 mg/kg/injection, schedule: Q04DX003 (ip), vehicle: carboxymethylcellulose (CMC)",103 % of control
same,T/C,"dose: 200.0 mg/kg/injection, schedule: Q04DX002 (ip), vehicle: carboxymethylcellulose (CMC)",96 % of control
same,T/C,"dose: 200.0 mg/kg/injection, schedule: Q04DX003 (ip), vehicle: carboxymethylcellulose (CMC)",107 % of control
same,T/C,"dose: 400.0 mg/kg/injection, schedule: Q04DX002 (ip), vehicle: carboxymethylcellulose (CMC)",96 % of control
same,T/C,"dose: 400.0 mg/kg/injection, schedule: Q04DX003 (ip), vehicle: carboxymethylcellulose (CMC)",97 % of control
COc1ccc(OC(=O)Nc2ccc(Cl)c(Cl)c2)cc1,T/C,[11],102 % of control
same,T/C,[1],95 % of control
same,T/C,[12],106 % of control
same,T/C,[2],95 % of control
same,T/C,[13],95 % of control
same,T/C,[3],102 % of control
Cc1cc(C)[nH]c(=O)n1,T/C,[14],98 % of control
same,T/C,[8],100 % of control
same,T/C,[15],88 % of control
same,T/C,[9],94 % of control
same,T/C,[10],96 % of control
O=C(O)c1ccccc1C(=O)c1cccc2c(Cl)cccc12,T/C,"dose: 50.0 mg/kg/injection, schedule: Q01DX001 (ip), vehicle: Klucel (hydroxypropylcellulose) (HPC)",97 % of control
same,T/C,"dose: 100.0 mg/kg/injection, schedule: Q01DX001 (ip), vehicle: Klucel (hydroxypropylcellulose) (HPC)",92 % of control
same,T/C,"dose: 200.0 mg/kg/injection, schedule: Q01DX001 (ip), vehicle: Klucel (hydroxypropylcellulose) (HPC)",91 % of control
O=c1cc(O)nc[nH]1,T/C,"dose: 220.0 mg/kg/injection, schedule: Q01DX Z (oral), vehicle: methylcellulose (MC)",105 % of control
same,T/C,"dose: 330.0 mg/kg/injection, schedule: Q01DX Z (oral), vehicle: methylcellulose (MC)",100 % of control
same,T/C,"dose: 500.0 mg/kg/injection, schedule: Q01DX Z (oral), vehicle: methylcellulose (MC)",95 % of control
O=C(O)Cn1nnc2ccccc21,T/C,"dose: 50.0 mg/kg/injection, schedule: Q01DX009 (ip), vehicle: saline",94 % of control
same,T/C,[14],249 % of control
same,T/C,[15],94 % of control
Cc1cc([N+](=O)[O-])ccc1NC(=O)Nc1ccccc1F,T/C,[5],102 % of control
same,T/C,[6],86 % of control
same,T/C,[7],96 % of control
N#Cc1cccc(/C=C/C=C\c2ccc([N+](=O)[O-])cc2)c1,T/C,[11],89 % of control
same,T/C,[12],95 % of control
Cc1cc2oc(/C=N/O)c(C)c2cc1C,T/C,[11],99 % of control
same,T/C,[12],96 % of control
same,T/C,[13],90 % of control
